According to PubChem BioAssay (NCI):
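Briefly, cells in 96-well plates were exposed to five compound concentrations for 48 h, and endpoints were estimated by linear interpolation. TGI: total growth inhibition.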

How the values were obtained:
Assay in all cases: NCI tumour cell line growth inhibition, 48 h
A498 renal = system: A498 renal
A549 NSCLC = system: A549 NSCLC
CCRF-CEM leukemia = system: CCRF-CEM leukemia
COLO 205 colon = system: COLO 205 colon
DLD-1 colon = system: DLD-1 colon
DMS 114 small cell lung = system: DMS 114 small cell lung
DMS 273 small cell lung = system: DMS 273 small cell lung
EKVX NSCLC = system: EKVX NSCLC
HCC-2998 colon = system: HCC-2998 colon
HCT-116 colon = system: HCT-116 colon
HCT-15 colon = system: HCT-15 colon
HL-60(TB) leukemia = system: HL-60(TB) leukemia
HOP-18 NSCLC = system: HOP-18 NSCLC
HOP-62 NSCLC = system: HOP-62 NSCLC
HOP-92 NSCLC = system: HOP-92 NSCLC
HT29 colon = system: HT29 colon
IGROV1 ovarian = system: IGROV1 ovarian
K-562 leukemia = system: K-562 leukemia
KM12 colon = system: KM12 colon
KM20L2 colon = system: KM20L2 colon
LOX IMVI melanoma = system: LOX IMVI melanoma
M19-MEL melanoma = system: M19-MEL melanoma
MALME-3M melanoma = system: MALME-3M melanoma
MCF7 breast = system: MCF7 breast
MOLT-4 leukemia = system: MOLT-4 leukemia
NCI-H226 lung = system: NCI-H226 lung
NCI-H23 lung = system: NCI-H23 lung
NCI-H460 lung = system: NCI-H460 lung
NCI-H522 lung = system: NCI-H522 lung
NCI/ADR-RES ovarian = system: NCI/ADR-RES ovarian
OVCAR-3 ovarian = system: OVCAR-3 ovarian
OVCAR-4 ovarian = system: OVCAR-4 ovarian
OVCAR-5 ovarian = system: OVCAR-5 ovarian
OVCAR-8 ovarian = system: OVCAR-8 ovarian
P388 leukemia = system: P388 leukemia
P388/ADR leukemia = system: P388/ADR leukemia
RPMI-8226 leukemia = system: RPMI-8226 leukemia
RXF 393 renal = system: RXF 393 renal
SF-268 CNS = system: SF-268 CNS
SF-295 CNS = system: SF-295 CNS
SF-539 CNS = system: SF-539 CNS
SK-MEL-2 melanoma = system: SK-MEL-2 melanoma
SK-MEL-28 melanoma = system: SK-MEL-28 melanoma
SK-MEL-5 melanoma = system: SK-MEL-5 melanoma
SK-OV-3 ovarian = system: SK-OV-3 ovarian
SN12C renal = system: SN12C renal
SN12K1 renal = system: SN12K1 renal
SNB-19 CNS = system: SNB-19 CNS
SNB-75 CNS = system: SNB-75 CNS
SNB-78 CNS = system: SNB-78 CNS
SW-620 colon = system: SW-620 colon
U251 CNS = system: U251 CNS
UACC-257 melanoma = system: UACC-257 melanoma
UACC-62 melanoma = system: UACC-62 melanoma
UO-31 renal = system: UO-31 renal
XF 498 CNS = system: XF 498 CNS

Measured: TGI

CSCC[C@@H](NC(=O)[C@H](CC(C)C)NC(=O)C(Cc1cnc[nH]1)NC(=O)CNC(=O)[C@@H](NC(=O)[C@H](C)NC(=O)[C@H](Cc1c[nH]c2ccccc12)NC(=O)[C@H](CCC(N)=O)NC(=O)[C@@H](N)CC(N)=O)C(C)C)C(N)=O (stereo partly specified)
> 100 µM: A498 renal | A549 NSCLC | CCRF-CEM leukemia | COLO 205 colon | DLD-1 colon | DMS 114 small cell lung | DMS 273 small cell lung | EKVX NSCLC | HCC-2998 colon | HCT-116 colon | HCT-15 colon | HL-60(TB) leukemia | HOP-18 NSCLC | HOP-62 NSCLC | HOP-92 NSCLC | HT29 colon | IGROV1 ovarian | K-562 leukemia | KM12 colon | KM20L2 colon | LOX IMVI melanoma | M19-MEL melanoma | MALME-3M melanoma | MCF7 breast | MOLT-4 leukemia | NCI-H226 lung | NCI-H23 lung | NCI-H460 lung | NCI-H522 lung | NCI/ADR-RES ovarian | OVCAR-3 ovarian | OVCAR-4 ovarian | OVCAR-5 ovarian | OVCAR-8 ovarian | P388 leukemia | P388/ADR leukemia | RPMI-8226 leukemia | RXF 393 renal | SF-268 CNS | SF-295 CNS | SF-539 CNS | SK-MEL-2 melanoma | SK-MEL-28 melanoma | SK-MEL-5 melanoma | SK-OV-3 ovarian | SN12C renal | SN12K1 renal | SNB-19 CNS | SNB-75 CNS | SNB-78 CNS | SW-620 colon | U251 CNS | UACC-257 melanoma | UACC-62 melanoma | UO-31 renal | XF 498 CNS
